Columns and labels:
[1] = tested on: Plasmodium falciparum; assay: NOVARTIS: Inhibition of Plasmodium falciparum W2 (drug-resistant) proliferation in erythrocyte-based infection assay; format: functional, organism-based; details: Plasmodium falciparum, W2; read-out: EC50
[2] = NOVARTIS: Cytotoxicity against human hepatocellular carcinoma cell line (Huh7); format: toxicity, cell-based, Huh-7; details: Huh7 cells (hepatocellular carcinoma cell line)
[3] = tested on: Plasmodium falciparum; assay: NOVARTIS: Inhibition of Plasmodium falciparum 3D7 (drug-susceptible) proliferation in erythrocyte-based infection assay; format: functional, organism-based; details: Plasmodium falciparum, 3D7

Structure (SMILES)	EC50 [1]	CC50 [2]	EC50 [3]
CCOc1ccccc1C1C(C#N)=C(SCC(=O)Nc2ccc(Cl)cc2)NC(C)=C1C(=O)Nc1ccccc1 (configuration not stated)	107 nM	> 100000 nM	352 nM
CC1(C)C2CCC1(C)C(NCc1ccccc1O)C2 (configuration not stated)	31.8 nM	48600 nM	107 nM
CC(C)C(=O)NC(Nc1cccc([N+](=O)[O-])c1)C(Cl)(Cl)Cl (configuration not stated)	1200 nM	> 100000 nM	1560 nM
CCCNC(=O)CSc1nc(C)c(Cc2ccccc2)c(=O)n1C	1170 nM	> 10000 nM	1280 nM
CC(C)CCNC(=O)CN1C(=O)c2cccnc2Oc2ccccc21	1500 nM	> 100000 nM	4050 nM
C=CCOc1cccc(/C=C2/NC(C)=C(C(=O)OCC)C2=O)c1	> 933 nM	> 10000 nM	> 1040 nM
CCC(COC)NC(=O)c1cn(C2CCCCC2)cc(C(=O)NC(C)(C)C)c1=O (configuration not stated)	1980 nM	> 100000 nM	2900 nM
O=C(NCCCNC(=O)Nc1cccc(C2=NCCN2)c1)Nc1cccc(C2=NCCN2)c1	256 nM	> 10000 nM	326 nM
Clc1ccc2c(c1)c(-c1ccccc1)nc1nnnn12	> 1180 nM	> 10000 nM	> 1250 nM
COc1ccccc1C(=O)NNC(=O)c1ccccn1	1380 nM	8700 nM	1710 nM
Clc1cccc(CNC2CCN(CCc3ccccc3)CC2)c1	801 nM	3040 nM	298 nM
OC(CN1CCN(CC=Cc2ccccc2)CC1)Cn1c2ccc(Br)cc2c2cc(Br)ccc21 (configuration not stated)	426 nM	> 54100 nM	1960 nM
O=C(Nc1ccc(-c2nnc(-c3ccc(NC(=O)c4ccccc4[N+](=O)[O-])cc3)o2)cc1)c1ccccc1[N+](=O)[O-]	> 12500 nM	> 100000 nM	406 nM
Cc1cc(C)cc(NC2=C(c3ccccc3)C(=O)c3ccccc32)c1	1530 nM	> 100000 nM	1830 nM
CCOc1ccccc1NC(=O)C1C(c2ccccc2)=C1c1ccccc1	> 1250 nM	> 10000 nM	1800 nM
Cc1c2c(cc3c1ccc1ccccc13)C[N+]1(CCCCC1)C2	657 nM	> 100000 nM	1290 nM
C[n+]1ccc(/C=C/c2ccc(Br)cc2)cc1	313 nM	> 10000 nM	455 nM
CCOc1ccc(C(=O)Nc2cc(OC)ccc2OC)cc1	> 917 nM	> 10000 nM	> 1250 nM
CCCCN(CCCC)S(=O)(=O)c1nc(C)c(Cl)c(C)c1C#N	> 12500 nM	> 100000 nM	3090 nM
CSc1nc2nc(C)c(Cc3cccc(C(F)(F)F)c3)c(C)n2n1	224 nM	> 100000 nM	270 nM
COc1cc(OC)cc(-n2c(=O)c3sccc3n(CC(=O)c3ccc(F)cc3)c2=O)c1	> 1170 nM	> 10000 nM	> 1250 nM
CCOc1cc([N+](=O)[O-])cc(C=Nc2cccc(NC(=O)c3ccco3)c2)c1O	> 1240 nM	> 10000 nM	> 1250 nM
Cc1ccc(NC(=O)c2sc3nc4c(c(-c5cccs5)c3c2N)CCCC4)cc1	2220 nM	> 100000 nM	442 nM

Structure (SMILES)	EC50 [1]	CC50 [2]	EC50 [3]
CC(C)NCC(O)Cn1c2ccc(Br)cc2c2cc(Br)ccc21 (configuration not stated)	54.4 nM	3360 nM	216 nM
Fc1ccc(CNc2ccnc3cc(Cl)ccc23)cc1	> 881 nM	> 10000 nM	808 nM
CCOC(=O)C1CCN(C(c2cc3cc(OC)c(OC)cc3[nH]c2=O)c2nnnn2C(C)(C)C)CC1 (configuration not stated)	567 nM	> 100000 nM	889 nM
COc1ccc(C2C(C(C)=O)=C(O)C(=O)N2CCCn2ccnc2)c(OC)c1 (configuration not stated)	1110 nM	> 100000 nM	4480 nM
COc1c2occc2c(OC)c2c(=O)cc(C(Cl)(Cl)Cl)oc12	254 nM	> 100000 nM	646 nM
C1CCC(NP2(NC3CCCCC3)=NP(NC3CCCCC3)(NC3CCCCC3)=NP(NC3CCCCC3)(NC3CCCCC3)=N2)CC1	3150 nM	41400 nM	6610 nM
Cc1ccn2c(NC(C)(C)CC(C)(C)C)c(-c3ccccc3OC(=O)c3ccc4c(c3)OCO4)nc2c1	24.1 nM	> 10000 nM	831 nM
O=C(C1CC=CCC1)N1CCCC(c2ncncc2-c2ccncc2)C1 (configuration not stated)	> 1250 nM	> 10000 nM	1370 nM
Cc1ccc(-c2cn3ccccc3[n+]2CC(=O)c2ccc(Cl)cc2)cc1[N+](=O)[O-]	506 nM	> 10000 nM	369 nM
CCOC(=O)C1=C(C)NC2=C(C(=O)C(C(=O)OC)C(C)C2)C1c1cc(Br)c(OC)c(OC)c1 (configuration not stated)	40.4 nM	> 100000 nM	537 nM
CC[C@H]1CN2CCc3cc(OC)c(OC)cc3[C@@H]2C[C@@H]1C[C@@H]1NCCc2cc(OC)c(OC)cc21	23.1 nM	82.2 nM	10.6 nM
COc1ccccc1C(=O)ON=C(N)Cc1cccc2ccccc12	212 nM	49600 nM	352 nM
CCC(CC)=NNC(=O)C(=O)NC1CCCCC1	535 nM	> 10000 nM	231 nM
COc1ccc(C(=O)n2nc(N)c3cc4ccc(C)cc4nc32)cc1[N+](=O)[O-]	> 12500 nM	> 100000 nM	> 5420 nM
CN(C)c1ccc(N2C(N)=NC(N)=NC23CCCC3)cc1	> 1570 nM	> 10000 nM	244 nM
N#Cc1c2c(c(N3CCN(Cc4ccc(F)cc4)CC3)n3c1nc1ccccc13)CCC2	37.7 nM	> 100000 nM	19.8 nM
CC1CCC2C(C)C(=O)OC3OC4(C)CCC1C32OO4 (configuration not stated)	4.58 nM	> 100000 nM	12 nM
CCOC(=O)C1=C(C)NC2=C(C(=O)CC(c3ccc(OC)c(OC)c3)C2)C1c1ccc(SC)cc1 (configuration not stated)	127 nM	> 100000 nM	302 nM
COc1ccc2nc(C)cc(Nc3ccc(Oc4ccc(Cl)cc4)c(Cl)c3)c2c1	571 nM	9340 nM	171 nM
COCCOC(=O)C1=C(C)NC2=C(C(=O)CC(c3ccc(OC)c(OC)c3)C2)C1c1ccc(F)cc1 (configuration not stated)	17.7 nM	46800 nM	38.2 nM
CCOc1ccccc1-n1c(N)c(C(=O)Nc2ccc(F)cc2)sc1=S	230 nM	> 100000 nM	968 nM
CCC[P+](CCC)(CCC)CC1OCc2ccccc2CO1	3600 nM	> 100000 nM	1800 nM
CCCCCN(C(=O)c1ccc(Br)cc1)C(CC)c1nc2ccccc2c(=O)n1-c1ccccc1OC (configuration not stated)	633 nM	> 4400 nM	1020 nM

Structure (SMILES)	EC50 [1]	CC50 [2]	EC50 [3]
CCC(C)(C)c1ccc(OCCCC[n+]2cccc(C)c2C)c(C(C)(C)CC)c1	430 nM	15200 nM	495 nM
Cc1ccc(Nc2cc(C)nc(NCc3ccccc3)n2)c(C)c1	619 nM	6510 nM	306 nM
O=C1C2C(C(=O)N1c1ccc(Cl)c(C(F)(F)F)c1)C1(c3ccccc3)C(=O)C2(c2ccccc2)C(c2ccccc2)=C1c1ccccc1 (configuration not stated)	616 nM	> 100000 nM	442 nM
CCN(CC)CCN(C)C1CCc2c(c(C(=O)N3CCCC3)nn2C)C1 (configuration not stated)	> 738 nM	12400 nM	> 424 nM
CCCCN1Cc2ccc(C(N)=O)cc2N=C1C1CC1	212 nM	> 11400 nM	62 nM
CCOc1ccc(Nc2nc(NCc3ccco3)c3ccccc3n2)cc1	528 nM	11600 nM	288 nM
CCCCCC(=O)Oc1ccccc1-c1nc2cc(C)ccn2c1NC(C)(C)CC(C)(C)C	44.8 nM	> 10000 nM	703 nM
Cc1ccc(S(=O)(=O)NC(=O)Nc2ccc(N(C)C)cc2)cc1	467 nM	20400 nM	324 nM
COc1ccc2c(c1)-c1c(ssc1=S)C(C)(C)N2C(=O)c1ccccc1F	118 nM	> 100000 nM	652 nM
CCC(=O)N1CCc2cc(Br)cc(S(=O)(=O)N3CC(C)CC(C)C3)c21 (configuration not stated)	1160 nM	> 100000 nM	1970 nM
N#C/C(=C\C=C\c1ccc([N+](=O)[O-])o1)c1nc2ccccc2[nH]1	946 nM	> 10000 nM	1050 nM
O=C(NN=Cc1ccc(O)c(O)c1)/C(=C/c1ccccc1)NC(=O)c1ccccc1	> 1110 nM	> 10000 nM	> 1250 nM
CCOC(=O)c1cnc2ccc(OC)cc2c1NCc1cccs1	3720 nM	> 100000 nM	5900 nM
COc1ccc(C2SCCN2S(=O)(=O)c2cccc([N+](=O)[O-])c2)cc1OC (configuration not stated)	> 676 nM	> 10000 nM	> 1250 nM
COc1cc(C(=O)NC(C)C)ccc1OC1CCN(CC(c2ccccc2)c2ccccc2)CC1	23.6 nM	> 100000 nM	74.3 nM
Cc1ccccc1N=c1oc2ccc3ccccc3c2cc1-c1nc2ccccc2[nH]1	> 1250 nM	> 2100 nM	> 997 nM
c1ccc(COCC[N+]2(Cc3ccccc3)CCCCC2)cc1	> 1250 nM	> 10000 nM	> 1160 nM
Cn1ccnc1C(=O)NNc1ncc(C(F)(F)F)cc1Cl	359 nM	1150 nM	609 nM
CC(C)CNc1nc(NCCN2CCCCC2)ncc1C(=O)NCc1ccccc1	> 1250 nM	> 10000 nM	1000 nM
CCCCCN(C(=O)c1cccc(F)c1)C(CC)c1nc2ccccc2c(=O)n1-c1ccc(Cl)cc1C (configuration not stated)	480 nM	> 10000 nM	1460 nM
CCN(CC)C(=O)c1cn(C2CCN(C(=O)CCc3cccc(OC)c3)CC2)nn1	26.7 nM	> 10000 nM	> 1250 nM
CCCC(=O)NC(c1cccc([N+](=O)[O-])c1)c1ccc2cccnc2c1O (configuration not stated)	125 nM	38800 nM	320 nM
CCOC(=O)c1ccc2c(c1)[C@@H]1C=CC[C@@H]1[C@H](c1cccc(OC)c1OC)N2	31.8 nM	> 100000 nM	471 nM
